Test results from EPA's ToxValDB 9.5 (doi:10.2903/j.efsa.2010.1716).
Values after ≈ are worked out from the molar mass of the structure shown.

Assays:
Bibionidae = conditions: chronic/long-term; duration: 28 days; seedling emergence
Apis mellifera = conditions: acute; duration: 48 hours; oral; unspecified; mortality
Danio rerio = conditions: acute; duration: 96 hours; mortality
Daphnia magna = conditions: chronic/long-term; duration: 21 days; reproduction
Oryctolagus sp. = conditions: reproduction developmental; body weight
Tagia sp. = conditions: acute; duration: 14 days; mortality
Aphidius rhopalosiphi = test: LR50; higher = less toxic; conditions: not reported; mortality

c1ccc(CNc2ncnc3nc[nH]c23)cc1 [N-Benzyladenine]
LC50 (Colinus virginianus; acute, oral, diet, mortality): > 2880 mg/kg-day | LD50 (Colinus virginianus; acute, oral, mortality): 1600 mg/kg-day | NOEC (Colinus virginianus; reproduction developmental): 41.3 mg/kg-day | NOEC (Bibionidae): 4.52 mg/L | LD50 (Apis mellifera): > 58.7 µg/piece | LC50 (Danio rerio): 32 mg/L (≈ 142 µM) | NOEC (Daphnia magna): 4 mg/L | LD50 (Rattus norvegicus; acute, oral, mortality): 1580 mg/kg-day | NOEL (Rattus norvegicus; reproduction developmental, body weight): 30 mg/kg-day | NOAEL (Oryctolagus sp.): < 10 mg/kg-day | LC50 (Tagia sp.): > 1000 mg/kg | LR50 (Aphidius rhopalosiphi): 36.2 g/ha
